Test results reported in PubChem BioAssay (NCI).
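Briefly, cells in 96-well plates were exposed to five compound concentrations for 48 h, and endpoints were estimated by linear interpolation. GI50 = concentration required for 50% inhibition of growth. TGI: concentration producing complete growth inhibition.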

Columns and labels:
Assay in all cases: NCI tumour cell line growth inhibition, 48 h
BT-549 breast = tested on: BT-549 breast
LOX IMVI melanoma = tested on: LOX IMVI melanoma
MOLT-4 leukemia = tested on: MOLT-4 leukemia
HCC-2998 colon = tested on: HCC-2998 colon
SF-539 CNS = tested on: SF-539 CNS
EKVX NSCLC = tested on: EKVX NSCLC
COLO 205 colon = tested on: COLO 205 colon
PC-3 prostate = tested on: PC-3 prostate
U251 CNS = tested on: U251 CNS
SK-MEL-2 melanoma = tested on: SK-MEL-2 melanoma

Row | Structure (SMILES) | TGI (BT-549 breast) | TGI (LOX IMVI melanoma) | TGI (MOLT-4 leukemia) | TGI (HCC-2998 colon) | TGI (SF-539 CNS) | TGI (EKVX NSCLC) | TGI (COLO 205 colon) | TGI (PC-3 prostate) | TGI (U251 CNS) | TGI (SK-MEL-2 melanoma) | GI50 (LOX IMVI melanoma) | GI50 (MOLT-4 leukemia) | GI50 (HCC-2998 colon) | GI50 (SF-539 CNS) | GI50 (EKVX NSCLC) | GI50 (SK-MEL-2 melanoma) | GI50 (COLO 205 colon) | GI50 (PC-3 prostate) | GI50 (U251 CNS)
1 | S=C1N(c2ccc(Cl)cc2)C2=C(N=Nc3ccccc3)C(=Nc3ccccc3S2)N1c1ccccn1 | 23.1 µM | 24.4 µM | 31.7 µM | 35.7 µM | 30.4 µM | 26.6 µM | 25.2 µM | 27.6 µM | 23.7 µM | – | – | – | – | – | – | – | – | – | –
2 | N#C/C=C1\C=CC(O)C(O)C1OC1OC(CO)C(O)C(O)C1O (stereo not given) | > 100 µM | > 100 µM | > 100 µM | > 100 µM | > 100 µM | > 100 µM | > 100 µM | > 100 µM | > 100 µM | > 100 µM | – | – | – | – | – | – | – | – | –
3 | O=S(=O)(O)c1c(N=Nc2c(O)ccc3ccccc23)ccc2ccccc12 | > 100 µM | > 100 µM | > 100 µM | – | – | > 100 µM | > 100 µM | > 100 µM | > 100 µM | > 100 µM | – | – | – | – | – | – | – | – | –
4 | O=S(O)c1cc(Cl)cc(Cl)c1O | – | > 100 µM | > 100 µM | > 100 µM | > 100 µM | > 100 µM | – | – | > 100 µM | > 100 µM | – | – | – | – | – | – | – | – | –
5 | CN(C)Cc1ccc(C(=O)Nc2ccc3ncnc(Nc4ccc(Oc5cccc(F)c5)c(Cl)c4)c3c2)cc1 | – | 3.15 µM | 3.21 µM | 3.11 µM | 3.04 µM | 2.7 µM | – | – | – | – | 1.69 µM | 1.55 µM | 1.67 µM | 1.6 µM | 1.3 µM | – | – | – | –
6 | S=C(Nc1ccc(Cl)cc1)Nc1ccc(Cl)cc1 (tested in a mixture with another compound) | – | 3.57 µM | – | 5.5 µM | 4.84 µM | > 100 µM | 3.42 µM | 6.59 µM | 3.52 µM | 5.04 µM | 1.71 µM | – | 2.07 µM | 2 µM | 2.25 µM | 2.34 µM | 1.9 µM | 1.71 µM | 1.64 µM
7 | CC(=O)OCC1OC(O[C@@H]2c3c(O)c4c(c(O)c3C3=C(NN(c5ccc([N+](=O)[O-])cc5[N+](=O)[O-])[Se]3=O)[C@@]2(C)O)C(=O)c2ccccc2C4=O)C(OC(C)=O)C(OC(C)=O)C1OC(C)=O (stereo not given in full) | 4.23 µM | 0.319 µM | 0.23 µM | 1.2 µM | – | 0.677 µM | 0.322 µM | 1.02 µM | 0.458 µM | 0.615 µM | – | – | – | – | – | – | – | – | –
8 | Fc1ccc(-c2ccc(-c3nnc(-c4cc(F)c(Cl)cc4Cl)o3)o2)cc1Cl | – | 48.9 µM | 85.2 µM | > 100 µM | 85.7 µM | > 100 µM | 42.8 µM | > 100 µM | > 100 µM | > 100 µM | 20.8 µM | 24.2 µM | 41.3 µM | 29.4 µM | 26.5 µM | 54.8 µM | 18.8 µM | 36.9 µM | 32.8 µM
9 | O=C(/C=C/c1ccc(O)cc1)NCCc1ccc(O)cc1 | > 12.5 µM | > 12.5 µM | – | – | 11.1 µM | > 12.5 µM | > 12.5 µM | > 12.5 µM | > 12.5 µM | > 12.5 µM | – | – | – | – | – | – | – | – | –
